Data from PubChem BioAssay AID1963982 (Molecular Pharmacology Branch, DTP, NCI, 2024).

Test system: 313798-341-R-J2-PDC spheroids, viability
Test: Anticancer human tumor 313798-341-R-J2-PDC patient-derived cervical squamous cell carcinoma cell line growth inhibition [PI3K]
Conditions: spheroids with HUVEC and MSC; for IC50: curve of first compound; for viability, T/C: stronger effect = lower value
Outline: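 Agents were dosed from a top concentration near clinical Cmax (otherwise 10 microM) in half-log decrements, alone or combined with PI3K inhibitors. The spheroids contain tumor cells plus endothelial (HUVEC) and MSC stroma; viability is measured.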
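Further: spheroids exposed to compounds for seven days.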
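Wherever viability, T/C is given: 100% = DMSO vehicle control viability.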

For `Cn1ncc(Cl)c1-c1cc(C(=O)NC(CN)Cc2cccc(F)c2)sc1Cl` (configuration not stated) + Cc1nc(NC(=O)N2CCCC2C(N)=O)sc1-c1ccnc(C(C)(C)C(F)(F)F)c1, the IC50 (second compound 0.0316 µM) was 927 nM, the IC50 (second compound 0.1 µM) was 831 nM and the IC50 (second compound 0.316 µM) was 868 nM. It also gave an IC50 (second compound 1 µM) of 572 nM, an IC50 (second compound 3.16 µM) of 238 nM and an IC50 (second compound 10 µM) of under 31.6 nM. The viability, T/C (second compound 0.0316 µM, first compound 0.0316 µM) was 109%, the viability, T/C (second compound 0.0316 µM, first compound 0.1 µM) was 93.2% and the viability, T/C (second compound 0.0316 µM, first compound 0.316 µM) was 70.3%. It also gave a viability, T/C (second compound 0.0316 µM, first compound 1 µM) of 49.7%, a viability, T/C (second compound 0.0316 µM, first compound 3.16 µM) of 34.5% and a viability, T/C (second compound 0.0316 µM, first compound 10 µM) of 33.3%. It also gave a viability, T/C (second compound 0.1 µM, first compound 0.0316 µM) of 108%, a viability, T/C (second compound 0.1 µM, first compound 0.1 µM) of 89% and a viability, T/C (second compound 0.1 µM, first compound 0.316 µM) of 72.1%. It also gave a viability, T/C (second compound 0.1 µM, first compound 1 µM) of 44.5%, a viability, T/C (second compound 0.1 µM, first compound 3.16 µM) of 33.6% and a viability, T/C (second compound 0.1 µM, first compound 10 µM) of 34.8%. The viability, T/C (second compound 0.316 µM, first compound 0.0316 µM) was 102%, the viability, T/C (second compound 0.316 µM, first compound 0.1 µM) was 99.7% and the viability, T/C (second compound 0.316 µM, first compound 0.316 µM) was 72.2%. The viability, T/C (second compound 0.316 µM, first compound 1 µM) was 48.5%, the viability, T/C (second compound 0.316 µM, first compound 3.16 µM) was 34.5% and the viability, T/C (second compound 0.316 µM, first compound 10 µM) was 33.1%. It also gave a viability, T/C (second compound 1 µM, first compound 0.0316 µM) of 76.5%, a viability, T/C (second compound 1 µM, first compound 0.1 µM) of 73.9% and a viability, T/C (second compound 1 µM, first compound 0.316 µM) of 56.5%. For the same molecule, the viability, T/C (second compound 1 µM, first compound 1 µM) was 43.9%, the viability, T/C (second compound 1 µM, first compound 3.16 µM) was 34.3% and the viability, T/C (second compound 1 µM, first compound 10 µM) was 33.7%. The viability, T/C (second compound 3.16 µM, first compound 0.0316 µM) was 59.5%, the viability, T/C (second compound 3.16 µM, first compound 0.1 µM) was 57.5% and the viability, T/C (second compound 3.16 µM, first compound 0.316 µM) was 46%. It also gave a viability, T/C (second compound 3.16 µM, first compound 1 µM) of 40.7%, a viability, T/C (second compound 3.16 µM, first compound 3.16 µM) of 30.4% and a viability, T/C (second compound 3.16 µM, first compound 10 µM) of 28.4%. The viability, T/C (second compound 10 µM, first compound 0.0316 µM) was 38.2%, the viability, T/C (second compound 10 µM, first compound 0.1 µM) was 32.6% and the viability, T/C (second compound 10 µM, first compound 0.316 µM) was 31.9%. For the same molecule, the viability, T/C (second compound 10 µM, first compound 1 µM) was 26.4%, the viability, T/C (second compound 10 µM, first compound 3.16 µM) was 27.7% and the viability, T/C (second compound 10 µM, first compound 10 µM) was 17.4%.
